Test results: patent publication US5869448A, “Cyclic CS-1 peptidomimetics, compositions and methods of using same” (Cytel Corporation, priority 1995, dated 1999)
Positions of bridges follow the written chain, without caps; N, C: chain ends. Non-standard residues stand in square brackets, D forms with d. Residues, ends and D or L forms follow the SMILES beside them. No end group written: not given here. *: point of attachment. Pen = CC(C)(S)[C@H](N)C(=O)O; PhAc = O=C(Cc1ccccc1)*

target: T1, VLA-4/CS-1 (Homo sapiens, UniProt P05556+P13612); assay: In vitro inhibition of binding of 51Cr-labeled Jurkat cells to solid phase-bound CS-1 peptide; assay type: cell-based; settings: Table 1; normalized IC50, standard peptide of SEQ ID NO:6 = 1
T1 construct: inflammatory cells that contain the VLA-4 receptor [Jurkat cells; host or cells: Jurkat (human T lymphoblastic line)
Protocol: Binding inhibition is measured here as a concentration of peptide that inhibits one-half the binding between a standard number of Jurkat cells and a standard amount of CS-1 peptide bound to the surface of a microtiter plate well. Those concentrations are conveniently expressed as IC50 values, smaller numbers indicating a lower concentration required to inhibit 50 percent binding and therefore greater potency. Further specifics of this assay are provided hereinafter.
Jurkat cells (ATCC TIB 152), a human T lymphoblastic line, labeled with ^51 chromium were used to assay in vitro binding inhibition provided by various peptides discussed herein.
The plates were prepared as follows: The 25-mer CS-1 peptide (SEQ ID NO:5) dissolved at 0.5-1 μg/ml in a buffer of 0.1M NaHCO3 at pH 9.5 that also contained 10 μg/ml of bovine serum albumin (BSA) or a conjugate of the CS-1 peptide linked to ovalbumin (CS-1-OVA) dissolved at 1-2.5 μg/ml in the same buffer was used as the substrate. Each well of the microtiter plates was coated with 50 μl of substrate or buffer alone for controls. The wells were permitted to dry out completely and were then rinsed twice with PBS at pH 7.4. Non-specific binding sites of each well were then blocked using 200 μl per well of RPMI/1 percent BSA for two hours at room temperature. Both solid phase-affixed substrates provided similar results.
Jurkat cells (3-5×10^6 cells) were placed into a 15 ml FALCON™ round-bottom tube with a cap. The tube was centrifuged, and the extra medium was then removed.
Two hundred microliters of a ^51 Cr labeling solution were added to the centrifuged cells and maintained in contact with the cells for 90-120 minutes in a warm room. This procedure typically provides about 50,000-100,000 cpm/well with about 80-100 percent cell viability. Longer contact times provide a greater amount of labeling but lower cell viability.
The labeled cells were washed with (i) complete medium, (ii) 1 mM EDTA/PBS and then (iii) RPM1/1 percent BSA free of serum components. The cells were centrifuged after each washing. The cells were finally resuspended in serum-free RPMI/1 percent BSA at a concentration of 1×10^6 viable cells/ml, which provides a concentration that is diluted by one-half in the assay.
Cyclic inhibitor peptides were prepared as stock solutions at 20 mg/ml in DMSO in 1.5 ml cryogenic screwcap vials, and were stored at -70° C. Using FLOW™ round-bottom or V-bottom microtiter plates, the inhibitor peptides were prepared at twice the assay concentration in RPMI/1 percent BSA at 60 μl/well.
Four initial dilutions were typically used.
The ^51 Cr-labeled cells (1×10^6 cells at 60 μl/well) were then admixed with the diluted cyclic peptide solutions. The admixtures were maintained at room temperature (about 22° C.) for 30 minutes.
One hundred microliters of each inhibitor peptide/cell admixture were transferred to the substrate-coated wells. This was done in triplicate for each dilution. The resulting plates were incubated for 30 minutes at 37° C. and then washed gently three times with RPMI/1 percent BSA at 200 μl/well. Binding was observed microscopically, particularly after the second wash.
The bound cells were then lysed by the addition of a 0.5 percent solution of sodium dodecylsulfate in water at 100 μl/well. The resulting solutions were then processed for counting and calculation of IC50 values following usual procedures. Appropriate positive and negative controls were used with each plate so that the results of separate assays could be normalized and compared.
The potency data of Table 1 and Table 2 are so normalized. The absolute IC50 value for the peptide of SEQ ID NO:7 is 0.3 μM.

T1 sequence (P13612 34-1032): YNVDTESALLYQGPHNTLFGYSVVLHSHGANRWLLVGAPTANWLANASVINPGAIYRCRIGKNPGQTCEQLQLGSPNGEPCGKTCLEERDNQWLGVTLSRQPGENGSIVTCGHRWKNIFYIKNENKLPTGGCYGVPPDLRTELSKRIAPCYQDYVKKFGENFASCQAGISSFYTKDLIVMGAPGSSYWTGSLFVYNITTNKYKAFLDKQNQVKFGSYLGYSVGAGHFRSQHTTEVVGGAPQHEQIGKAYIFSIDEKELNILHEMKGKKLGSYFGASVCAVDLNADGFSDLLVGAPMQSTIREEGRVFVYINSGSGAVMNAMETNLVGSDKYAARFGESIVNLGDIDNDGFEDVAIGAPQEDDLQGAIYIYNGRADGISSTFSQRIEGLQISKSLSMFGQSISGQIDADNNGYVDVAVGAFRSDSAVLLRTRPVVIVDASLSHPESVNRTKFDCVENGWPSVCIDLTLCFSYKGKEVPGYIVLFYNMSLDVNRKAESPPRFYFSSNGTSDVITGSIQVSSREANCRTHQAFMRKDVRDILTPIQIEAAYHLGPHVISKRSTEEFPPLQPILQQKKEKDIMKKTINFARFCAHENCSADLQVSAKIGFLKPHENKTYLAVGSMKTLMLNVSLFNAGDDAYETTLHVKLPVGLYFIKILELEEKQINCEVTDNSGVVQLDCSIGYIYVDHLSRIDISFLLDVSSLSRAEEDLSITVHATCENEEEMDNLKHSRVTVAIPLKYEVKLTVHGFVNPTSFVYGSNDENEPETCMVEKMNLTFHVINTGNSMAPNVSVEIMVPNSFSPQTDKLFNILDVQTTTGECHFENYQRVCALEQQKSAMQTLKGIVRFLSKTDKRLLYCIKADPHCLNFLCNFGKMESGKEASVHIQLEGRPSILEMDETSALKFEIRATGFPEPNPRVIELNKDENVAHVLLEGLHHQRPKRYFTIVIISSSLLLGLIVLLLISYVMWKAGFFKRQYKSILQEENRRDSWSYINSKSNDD
T1 sequence (P05556 21-798): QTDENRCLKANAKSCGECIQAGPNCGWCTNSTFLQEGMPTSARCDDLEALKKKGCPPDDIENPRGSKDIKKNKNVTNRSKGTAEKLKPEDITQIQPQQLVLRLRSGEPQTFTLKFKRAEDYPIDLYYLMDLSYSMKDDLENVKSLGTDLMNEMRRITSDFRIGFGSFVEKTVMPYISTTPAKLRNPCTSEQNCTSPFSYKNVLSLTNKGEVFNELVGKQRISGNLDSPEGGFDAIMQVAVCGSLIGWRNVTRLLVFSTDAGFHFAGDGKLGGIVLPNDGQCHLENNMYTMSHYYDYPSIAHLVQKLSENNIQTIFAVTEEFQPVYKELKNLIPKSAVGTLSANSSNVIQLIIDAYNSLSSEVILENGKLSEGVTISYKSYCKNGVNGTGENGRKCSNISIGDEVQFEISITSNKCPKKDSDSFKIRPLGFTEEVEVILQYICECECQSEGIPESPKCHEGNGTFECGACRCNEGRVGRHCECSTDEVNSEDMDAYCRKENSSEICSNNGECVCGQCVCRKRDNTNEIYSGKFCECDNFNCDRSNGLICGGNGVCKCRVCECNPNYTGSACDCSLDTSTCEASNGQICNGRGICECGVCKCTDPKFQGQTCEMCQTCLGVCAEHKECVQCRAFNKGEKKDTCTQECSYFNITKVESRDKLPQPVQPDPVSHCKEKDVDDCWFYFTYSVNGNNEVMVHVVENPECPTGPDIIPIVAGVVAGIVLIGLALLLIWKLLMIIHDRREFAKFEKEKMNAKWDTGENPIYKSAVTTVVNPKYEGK

Row | Molecule | Relative Potency
1 | ILDVPILDVP-NH2 [compound 26] | 2
2 | .phi.AcJDFc-NH2 (PhAc-[Pen]DF[dC]-NH2; disulfide 1-4) | 4
3 | CC(C)C[C@@H]1NC(=O)[C@H](Cc2ccccc2)NC(=O)[C@H](CCC(=O)O)NC(=O)[C@@H]2CCCN2C(=O)[C@@H](N)CSSC[C@@H](C(N)=O)NC(=O)[C@@H]2CCCN2C(=O)[C@H](Cc2ccccc2)NC(=O)[C@H](CC(=O)O)NC1=O [compound 16] (H-CPEFLDFPC-NH2; disulfide 1-9) | 31
4 | CC(C)C[C@@H]1NC(=O)[C@H](Cc2ccccc2)NC(=O)[C@H](CCC(=O)O)NC(=O)[C@@H](N)CSSC[C@@H](C(N)=O)NC(=O)[C@H](CO)NC(=O)[C@@H]2CCCN2C(=O)[C@H](Cc2ccccc2)NC(=O)[C@H](CC(=O)O)NC1=O [compound 24] (H-CEFLDFPSC-NH2; disulfide 1-9) | 6
5 | CC(=O)N[C@@H](Cc1ccccc1)C(=O)N[C@@H](CS)C(=O)N[C@@H](CC(=O)O)C(=O)N[C@@H](Cc1ccccc1)C(=O)N[C@@H](CS)C(N)=O [compound 18] (Ac-FCDFC-NH2) | 41
6 | CC(C)C[C@@H]1NC(=O)[C@H](CCC(=O)O)NC(=O)[C@@H]2CCCN2C(=O)[C@@H](N)CSSC[C@@H](C(N)=O)NC(=O)[C@H](CO)NC(=O)[C@@H]2CCCN2C(=O)[C@H](Cc2ccccc2)NC(=O)[C@H](CC(=O)O)NC1=O [compound 33] (H-CPELDFPSC-NH2; disulfide 1-9) | 31
7 | CC(C)C[C@@H]1NC(=O)[C@H](Cc2ccccc2)NC(=O)[C@H](CCC(=O)O)NC(=O)[C@@H]2CCCN2C(=O)[C@@H](N)CSSC[C@@H](C(N)=O)NC(=O)[C@H](CO)NC(=O)[C@@H]2CCCN2C(=O)[C@H](Cc2ccccc2)NC(=O)[C@H](CC(=O)O)NC1=O [compound 19] (H-CPEFLDFPSC-NH2; disulfide 1-10) | 6
8 | CC(=O)N[C@@H](Cc1ccccc1)C(=O)N[C@H]1CSSC[C@@H](C(N)=O)NC(=O)[C@H](Cc2ccccc2)NC(=O)[C@H](CC(=O)O)NC1=O [compound 17] (Ac-FCDFC-NH2; disulfide 2-5) | 53
9 | CC(=O)N[C@@H](Cc1ccccc1)C(=O)N[C@H]1CSSC[C@@H](C(=O)N2CCC[C@H]2C(N)=O)NC(=O)[C@H](CC(=O)O)NC1=O [compound 29] (Ac-FCDCP-NH2; disulfide 2-4) | 1
10 | O=C(O)C[C@@H]1NC(=O)[C@@H](NC(=O)Cc2ccccc2)CSCCNC(=O)[C@H](Cc2ccccc2)NC1=O [.phi.AcCDF--NHCH2 CH2 --] | 16
11 | CC(C)C[C@@H]1NC(=O)[C@H](Cc2ccccc2)NC(=O)[C@H](CCC(=O)O)NC(=O)[C@@H]2CCCN2C(=O)CNC(=O)[C@@H](N)CSSC[C@@H](C(N)=O)NC(=O)[C@H](Cc2ccccc2)NC(=O)[C@H](CC(=O)O)NC1=O [compound 23] (H-CGPEFLDFC-NH2; disulfide 1-9) | 9
12 | CC(=O)N[C@@H](CC(C)C)C(=O)N[C@@H](CC(=O)O)C(=O)N[C@H](C(N)=O)C(C)C [AcLDV--NH2, reference compound] (Ac-Leu-Asp-Val-NH2) | < 1
13 | CC1(C)SSC[C@@H](C(N)=O)NC(=O)[C@H](Cc2ccccc2)NC(=O)[C@H](CC(=O)O)NC(=O)[C@H]1NC(=O)Cc1ccccc1 [compound 14] (PhAc-[Pen]DFC-NH2; disulfide 1-4) | 94
14 | CC(C)C[C@@H]1NC(=O)[C@H](Cc2ccccc2)NC(=O)[C@H](CCC(=O)O)NC(=O)[C@@H](N)CSSC[C@@H](C(N)=O)NC(=O)[C@@H]2CCCN2C(=O)[C@H](Cc2ccccc2)NC(=O)[C@H](CC(=O)O)NC1=O [compound 20] (H-CEFLDFPC-NH2; disulfide 1-8) | 19
15 | CC(C)C[C@H](N)C(=O)N[C@@H](CC(=O)O)C(=O)N[C@H](C(N)=O)C(C)C [LDV--NH2, reference compound] (H-Leu-Asp-Val-NH2) | 0
16 | CC(C)C[C@H](N)C(=O)N[C@@H](CC(=O)O)C(=O)N[C@@H](Cc1ccccc1)C(N)=O [LDF--NH2] (H-Leu-Asp-Phe-NH2) | 0
17 | CC(C)C[C@@H]1NC(=O)[C@H](Cc2ccccc2)NC(=O)[C@@H](N)CSSC[C@@H](C(N)=O)NC(=O)[C@H](C(C)C)NC(=O)[C@H]([C@@H](C)O)NC(=O)[C@H](CO)NC(=O)[C@@H]2CCCN2C(=O)[C@H](Cc2ccccc2)NC(=O)[C@H](CC(=O)O)NC1=O [compound 21] (H-CFLDFPSTVC-NH2; disulfide 1-10) | 19
18 | CC(C)C[C@@H]1NC(=O)[C@H](Cc2ccccc2)NC(=O)[C@@H](N)CSSC[C@@H](C(N)=O)NC(=O)[C@H]([C@@H](C)O)NC(=O)[C@H](CO)NC(=O)[C@@H]2CCCN2C(=O)[C@H](Cc2ccccc2)NC(=O)[C@H](CC(=O)O)NC1=O [compound 15] (H-CFLDFPSTC-NH2; disulfide 1-9) | 81
19 | SFDFS-NH2 [compound 31] | < 1
20 | ILDFP-NH2 [compound 27] | 2
21 | NC(=O)[C@@H]1CSSC[C@H](NC(=O)[C@@H](N)Cc2ccccc2)C(=O)N[C@@H](CC(=O)O)C(=O)N[C@@H](Cc2ccccc2)C(=O)N1 [compound 25] (H-FCDFC-NH2; disulfide 2-5) | 3

same assay, conditions: Table 2; normalized, relative to standard peptide of SEQ ID NO:6

Row | Molecule | Relative Potency
22 | .phi.AcJDFc-NH2 (PhAc-[Pen]DF[dC]-NH2; disulfide 1-4) | 4.07
23 | CC(=O)N[C@H]1CSSC[C@@H](C(=O)N2CCC[C@@H]2C(N)=O)NC(=O)[C@H](CC(=O)O)NC(=O)[C@H](CC(C)C)NC1=O (Ac-CLDC[dP]-NH2; disulfide 1-4) | 0
24 | CC(C)C[C@@H]1NC(=O)[C@H](Cc2ccccc2)NC(=O)[C@@H](N)CSSC[C@@H](C(=O)N2CCC[C@H]2C(N)=O)NC(=O)[C@H](CC(=O)O)NC1=O (H-CFLDCP-NH2; disulfide 1-5) | 0
25 | O=C(O)C[C@@H]1NC(=O)[C@@H](NC(=O)Cc2ccccc2)CSCCNC(=O)[C@H](Cc2ccccc2)NC1=O [.phi.AcCDF--NHCH2 CH2 --] | 16.1
26 | CC(C)C[C@@H]1NC(=O)[C@H](Cc2ccccc2)NC(=O)[C@H](CCC(=O)O)NC(=O)[C@@H]2CCCN2C(=O)[C@@H](N)CSSC[C@@H](C(N)=O)NC(=O)[C@H](Cc2ccccc2)NC(=O)[C@H](CC(=O)O)NC1=O (H-CPEFLDFC-NH2; disulfide 1-8) | 56.3
27 | CC(=O)N[C@H]1CSSC[C@@H](C(N)=O)NC(=O)[C@H](Cc2ccccc2)NC(=O)[C@H](CC(=O)O)NC(=O)[C@H](CC(C)C)NC1=O (Ac-CLDFC-NH2; disulfide 1-5) | .91

same assay, conditions: XLDFp = 1

Row | Molecule | CS-1 binding inhibition potencies relative to each other
28 | CC(C)C[C@H](NC(=O)Cc1ccccc1)C(=O)N[C@@H](CC(=O)O)C(=O)N[C@@H](Cc1ccccc1)C(=O)N1CCC[C@@H]1C(N)=O [XLDFp, .phi.Ac-LeuAspPhe-D-Pro-NH2, reference compound] (PhAc-LDF[dP]-NH2) | ~1

same assay, conditions: times more potent than standard 10-mer

Row | Molecule | inhibition potency relative to the Standard 10-mer of SEQ ID NO:6
29 | CC(C)C[C@H](NC(=O)Cc1ccccc1)C(=O)N[C@@H](CC(=O)O)C(=O)N[C@@H](Cc1ccccc1)C(=O)N1CCC[C@@H]1C(N)=O [XLDFp, .phi.Ac-LeuAspPhe-D-Pro-NH2, reference compound] (PhAc-LDF[dP]-NH2) | ~313
30 | CC(C)C[C@@H]1NC(=O)[C@H](Cc2ccccc2)NC(=O)[C@@H](N)CSSC[C@@H](C(N)=O)NC(=O)[C@@H]2CCCN2C(=O)[C@H](Cc2ccccc2)NC(=O)[C@H](CC(=O)O)NC1=O [SEQ ID NO:10, CFLDFPC--NH2] (H-CFLDFPC-NH2; disulfide 1-7) | about 253
31 | CC(=O)N[C@@H](CC(C)C)C(=O)N[C@@H](CC(=O)O)C(=O)N[C@H](C(N)=O)C(C)C [AcLDV--NH2, reference compound] (Ac-Leu-Asp-Val-NH2) | about 1
32 | CC(C)C[C@H](N)C(=O)N[C@@H](CC(=O)O)C(=O)N[C@H](C(N)=O)C(C)C [LDV--NH2, reference compound] (H-Leu-Asp-Val-NH2) | zero
